Test results: the OligoGym collection
“And” between values parts separate entries of the source, which are not always exact repeats. Identical values can stand only once. After the bases stand the sugars from the 5' end (letter, count) and the backbone: PS all phosphorothioate, else s phosphorothioate and o phosphodiester by linkage. Methylation of C is not given here. e = 2'-O-(2-methoxyethyl) (MOE); k = constrained ethyl (cEt); d = 2'-deoxy (DNA)

target: DGAT2; conditions: ASO, HepG2, 0.12 µM

| Sequence | target mRNA inhibition [%] |
| --- | --- |
| TGGTCTTGTGCTTGTCGAAG (sugars e5 d10 e5, PS) | 41 |
| TGGTGATGGGCTTGGAGTAG (sugars e5 d10 e5, PS) | 28 |
| TGTCTTCACCAGCTGGATGG (sugars e5 d10 e5, PS) | 55 |
| TGTGCTGCATCCATGTCATC (sugars e5 d10 e5, PS) | 36 |
| TGTGTCTTCACCAGCTGGAT (sugars e5 d10 e5, PS) | 55 |
| TTATCCTTGAGGGTCTCATA (sugars e5 d10 e5, PS) | 45 |
| TTCACCAGGGCCTCCATGTA (sugars e5 d10 e5, PS) | 20 |
| TTCCCCAGAGCAGCTCTGAG (sugars e5 d10 e5, PS) | 27 |
| TTCGGACCCACTGTGACCTC (sugars e3 d14 e3, PS) | 64 |
| TTCTGGAACTTCTTCTGGAC (sugars e5 d10 e5, PS) | 37 |
| TTCTGTGGCCTCTGTGCTGA (sugars e5 d10 e5, PS) | 25 |
| TTCTTGCCAGGCATGGAGCT (sugars e5 d10 e5, PS) | 54 |
| TTCTTTTAAATAACCCACAG (sugars e5 d10 e5, PS) | 8 |
| TTTCGGACCCACTGTGACCT (sugars e2 d13 e5, PS) | 68 |
| TTTCGGACCCACTGTGACCT (sugars e3 d14 e3, PS) | 61 |

same assay, conditions: ASO, HepG2, 2.5 µM

| Sequence | target mRNA inhibition |
| --- | --- |
| TGTACACTTCATTCTCTCCA (sugars e5 d10 e5, PS) | 41% |
| TGTCCTAGTGCCCCAGGGAG (sugars e5 d10 e5, PS) | 48% |
| TGTGCTCTGTGGGCTCCTCC (sugars e5 d10 e5, PS) | 66% |
| TTGTACACTTCATTCTCTCC (sugars e5 d10 e5, PS) | 37% |
| TTGTCCTGGTCCCAGTACTT (sugars e5 d10 e5, PS) | 68% |
| TTTCCACTCTTCTGACAGGT (sugars e5 d10 e5, PS) | 77% and 69% |

same assay, conditions: ASO, HepG2, 10 µM

| Sequence | target mRNA inhibition |
| --- | --- |
| TGTACACTTCATTCTCTCCA (sugars e5 d10 e5, PS) | 87% |
| TGTCCTAGTGCCCCAGGGAG (sugars e5 d10 e5, PS) | 79% |
| TGTGCTCTGTGGGCTCCTCC (sugars e5 d10 e5, PS) | 85% |
| TTCCACTCTTCTGACAGGTC (sugars e5 d10 e5, PS) | 89% and 84% |
| TTGGTCTTTTTGGCTGCCCT (sugars e5 d10 e5, PS) | 85% and 82% |
| TTGTACACTTCATTCTCTCC (sugars e5 d10 e5, PS) | 84% |
| TTGTCCTGGTCCCAGTACTT (sugars e5 d10 e5, PS) | 88% |
| TTTCCACTCTTCTGACAGGT (sugars e5 d10 e5, PS) | 93% and 92% |

target: IRF5; conditions: ASO, KARPAS-229, 0.44444 µM

| Sequence | target mRNA inhibition [%] |
| --- | --- |
| ACCACTGTGTACCCCA (sugars kkddddddddddkeke, PS) | 26 |
| AGCTTGGTCTTGACCT (sugars k3 d10 k3, PS) | 33 |
| AGGAGTGAGACGAGCA (sugars k3 d10 k3, PS) | 12 |

same assay, conditions: ASO, KARPAS-229, 1.33333 µM

| Sequence | target mRNA inhibition [%] |
| --- | --- |
| ACCACTGTGTACCCCA (sugars kkddddddddddkeke, PS) | 38 |
| AGCTTGGTCTTGACCT (sugars k3 d10 k3, PS) | 41 |
| AGGAGTGAGACGAGCA (sugars k3 d10 k3, PS) | 41 |

same assay, conditions: ASO, KARPAS-229, 4 µM

| Sequence | target mRNA inhibition |
| --- | --- |
| AAACCATTCTATGCCT (sugars k3 d10 k3, PS) | 0% |
| AAAGGGTGAGTAGGAC (sugars k3 d10 k3, PS) | 24% |
| AACCATTCTATGCCTT (sugars k3 d10 k3, PS) | 33% |
| AAGGGCACAGCGCAGG (sugars kkddddddddddkeke, PS) | 0% |
| AAGGGCACAGCGCAGG (sugars kkddddddddkekekk, PS) | 0% |
| AAGGGCACAGCGCAGG (sugars kkkddddddddkdkdk, PS) | 12% |
| ACATCCATCAATGAGG (sugars k3 d10 k3, PS) | 0% |
| ACATCTCCACATCAGT (sugars kkddddddddddkeke, PS) | 36% |
| ACATCTCCACATCAGT (sugars kkddddddddkekekk, PS) | 15% |
| ACCACTGTGTACCCCA (sugars kdddddddddkekeke, PS) | 40% |
| ACCACTGTGTACCCCA (sugars kkddddddddddkeke, PS) | 66% and 56% |
| ACCACTGTGTACCCCA (sugars kkkddddddddkekek, PS) | 6% |
| ACTGACACAGGCGGAT (sugars kkdddddddddkdkdk, PS) | 6% |
| ACTGACACAGGCGGAT (sugars kkddddddddkekekk, PS) | 0% |
| AGACGAGCAAAGGGTG (sugars k3 d10 k3, PS) | 35% |
| AGATGGTGTTATCTCC (sugars kddddddddddkekek, PS) | 0% |
| AGATGGTGTTATCTCC (sugars kkdddddddddkekek, PS) | 0% |
| AGATGGTGTTATCTCC (sugars kkddddddddkekekk, PS) | 0% |
| AGATGGTGTTATCTCC (sugars kkkddddddddkekek, PS) | 0% |
| AGCTTGGTCTTGACCT (sugars kekdddddddddeekk, PS) | 38% |
| AGCTTGGTCTTGACCT (sugars kkddddddddkekekk, PS) | 0% |
| AGCTTGGTCTTGACCT (sugars kkkddddddddkdkdk, PS) | 12% |
| AGGAAGTGAGTCTCAA (sugars kekdddddddddeekk, PS) | 43% |
| AGGAAGTGAGTCTCAA (sugars kkddddddddddkeke, PS) | 39% |

| Sequence | target mRNA inhibition |
| --- | --- |
| AGGAAGTGAGTCTCAA (sugars kkdddddddddkekek, PS) | 42% |
| AGGAAGTGAGTCTCAA (sugars kkkddddddddkdkdk, PS) | 40% |
| AGGAGTGAGACGAGCA (sugars k3 d10 k3, PS) | 56% and 58% |
| AGGAGTGAGACGAGCA (sugars kekdddddddddeekk, PS) | 22% |
| AGGAGTGAGACGAGCA (sugars kkdddddddddkekek, PS) | 36% |
| AGGAGTGAGACGAGCA (sugars kkkdddddddddkeke, PS) | 42% |
| AGGTTCTTGGACTCTC (sugars k2 d8 e4 k2, PS) | 17% |
| AGGTTCTTGGACTCTC (sugars k2 d9 e3 k2, PS) | 0% |
| AGGTTCTTGGACTCTC (sugars kddddddddddkekek, PS) | 34% |
| AGGTTCTTGGACTCTC (sugars kkdddddddddkekek, PS) | 38% |
| ATCACCACTGTGTACC (sugars k3 d9 k3 e1, PS) | 19% |
| ATCACCACTGTGTACC (sugars kkdddddddddkekek, PS) | 0% |
| ATCACCACTGTGTACC (sugars kkddddddddkekekk, PS) | 0% |
| ATGAGTCATGGGCTGA (sugars k3 d9 k3 e1, PS) | 20% |
| ATGAGTCATGGGCTGA (sugars kddddddddddkekek, PS) | 0% |
| ATGAGTCATGGGCTGA (sugars kkddddddddddkeke, PS) | 0% |
| ATGAGTCATGGGCTGA (sugars kkdddddddddkekek, PS) | 0% |
| ATGGTGTTATCTCCGT (sugars kdddddddddkekeke, PS) | 0% |
| ATTCCAATTTTGCATT (sugars k3 d10 k3, PS) | 21% |
| ATTTCTGCTCCAGGTT (sugars kdddddddddkekeke, PS) | 13% |
| ATTTCTGCTCCAGGTT (sugars kkddddddddkekekk, PS) | 6% |
| ATTTGCCTTCTGCAGG (sugars k3 d10 k3, PS) | 0% |
| ATTTTGTGACTGTATT (sugars k3 d10 k3, PS) | 4% |

same assay, conditions: ASO, KARPAS-229, 12 µM

| Sequence | target mRNA inhibition [%] |
| --- | --- |
| ACCACTGTGTACCCCA (sugars kkddddddddddkeke, PS) | 70 |
| AGCTTGGTCTTGACCT (sugars k3 d10 k3, PS) | 55 |
| AGGAGTGAGACGAGCA (sugars k3 d10 k3, PS) | 70 |
